Data taken from patent US20230167467A1, “METHODS AND COMPOSITIONS FOR THE PRODUCTION OF ISOBUTENE” (University of Alaska Anchorage, priority 2020, published 2023).
In brackets after ≈: the same amount, converted by molar mass. Read-outs that look alike come from different tables or passages of the source.

Columns and labels:
[1] = at 20° C.; cited from earlier work
[2] = tested on: Engineered strains of E. coli; format: cell-based
[3] = cited from earlier work; for Isobutene production: purified M3K
3-HIV = conditions: expressed in E. coli, plasmid based system, synthetic media; cited from earlier work
[4] = after solvent exposure, vs positive control

## C=C(C)C [isobutene]
[1]
  aqueous solubility: 0.03 mg/mL (≈ 535 µM)
[2]
  expression of accBC (fatty acid biosynthesis): downregulated
  expression of bssRS (decreasing biofilm material): upregulated
  expression of chaperone genes groLS and dnaJK: increased expression
  expression of gad genes: increase in expression
  expression of gadABCE (acid resistance via GABA production): upregulated
  expression of glpABC (glycerol to glycerone phosphate): increased in expression
  expression of heat shock proteins and chaperones hslJORUV: no significant changes in expression
  expression of ibpAB: strong upregulation
  expression of ibpAB and clpAB (protein protection and repair): increased
  expression of marA: upregulated
[2]; [4]
  change in expression of gene adiA: 0.47 ± 0.86
  change in expression of gene adiC: −1.83 ± 1.03
  change in expression of gene adiY: 0.21 ± 0.65
  change in expression of gene bhsA: 0.43 ± 0.86
  change in expression of gene bssR: 3.93 ± 0.44
  change in expression of gene bssS: 3.75 ± 0.84
  change in expression of gene clpA: 1.73 ± 0.64
  change in expression of gene clpB: 2.85 ± 0.69
  change in expression of gene clpP: 0.09 ± 0.59
  change in expression of gene coaA: −4.22 ± 0.95
  change in expression of gene coaD: −3.52 ± 1.24
  change in expression of gene cspA: −8.13 ± 0.67
  change in expression of gene cspB: −9.03 ± 1.74
  change in expression of gene cspC: −2.50 ± 0.94
  change in expression of gene cspD: 3.12 ± 0.58
  change in expression of gene cspE: −0.85 ± 0.63
  change in expression of gene cspF: −7.27 ± 1.56
  change in expression of gene dhaK: 2.25 ± 0.59
  change in expression of gene dhaL: 0.48 ± 0.65
  change in expression of gene dnaJ: 0.17 ± 0.70
  change in expression of gene dnaK: 2.71 ± 0.66
  change in expression of gene fabA: −2.35 ± 0.81
  change in expression of gene fabB: −0.08 ± 0.68
  change in expression of gene fabD: −1.92 ± 0.54
  change in expression of gene flgA: −3.93 ± 1.72
  change in expression of gene flgB: −7.15 ± 1.90
  change in expression of gene flgC: −8.24 ± 2.24
  change in expression of gene flgD: −6.54 ± 2.06
  change in expression of gene flgE: −7.58 ± 1.51
  change in expression of gene flgF: −7.63 ± 1.96
  change in expression of gene flgG: −6.35 ± 1.72
  change in expression of gene flgH: −4.44 ± 1.88
  change in expression of gene gabD: −0.64 ± 1.36
  change in expression of gene gabP: −3.65 ± 1.55
  change in expression of gene gabT: −1.79 ± 1.38
  change in expression of gene gadA: 1.22 ± 0.68
  change in expression of gene gadB: 2.70 ± 0.79
  change in expression of gene gadC: 3.17 ± 0.80
  change in expression of gene gadE: 1.75 ± 0.60
  change in expression of gene gadW: −4.21 ± 1.02
  change in expression of gene gadX: −1.69 ± 0.57
  change in expression of gene gadY: −1.72 ± 0.78
  change in expression of gene glpA: 9.06 ± 0.87
  change in expression of gene glpB: 6.10 ± 0.63
  change in expression of gene glpC: 6.02 ± 0.80
  change in expression of gene groL: 2.61 ± 0.57
  change in expression of gene groS: 1.62 ± 0.50
  change in expression of gene hchA: 3.41 ± 0.60
  change in expression of gene hslJ: −1.24 ± 0.71
  change in expression of gene hslO: −0.29 ± 0.66
  change in expression of gene hslR: −0.04 ± 0.67
  change in expression of gene hslU: 0.23 ± 0.56
  change in expression of gene hslV: −1.15 ± 0.66
  change in expression of gene ibpA: 3.97 ± 1.21
  change in expression of gene ibpB: 3.99 ± 1.50
  change in expression of gene lhgO: −1.00 ± 1.77
  change in expression of gene lipA: −1.56 ± 0.63
  change in expression of gene lipB: −4.07 ± 0.88
  change in expression of gene narG: 4.31 ± 0.65
  change in expression of gene narH: 3.55 ± 0.61
  change in expression of gene narI: 1.31 ± 0.94
  change in expression of gene narJ: 2.32 ± 0.68
  change in expression of gene narK: −0.07 ± 0.89
  change in expression of gene potA: −5.02 ± 0.89
  change in expression of gene potB: −4.42 ± 1.50
  change in expression of gene potC: −3.91 ± 1.44
  change in expression of gene pspA: 7.14 ± 0.55
  change in expression of gene pspB: 4.56 ± 0.68
  change in expression of gene rpoA: −0.01 ± 0.44
  change in expression of gene rpoB: −0.34 ± 0.40
  change in expression of gene rpoC: −0.44 ± 0.39
  change in expression of gene rpoD: −0.24 ± 0.70
  change in expression of gene rpoE: −1.87 ± 0.62
  change in expression of gene rpoH: 0.42 ± 0.52
  change in expression of gene rpoN: −1.57 ± 0.49
  change in expression of gene rpoS: 0.24 ± 0.48
  change in expression of gene rpoZ: −2.12 ± 0.55
  change in expression of gene spy: 2.48 ± 0.88
  change in expression of gene tatA: −1.83 ± 0.52
  change in expression of gene tatB: −2.68 ± 0.61
  change in expression of gene tatC: −3.61 ± 1.20
  change in expression of gene tatD: −4.46 ± 1.28
  change in expression of gene tatE: 0.70 ± 0.64
[2]; vs control, Bon Ferroni corrected p-value<0.05
  number of genes with significant changes in expression: 1384 genes

B1: M3K: mevalonate-3-kinase of Picrophilus torridus, enzyme and gene/transcript (optimized gene SEQ ID NO:1) (protein)
chain: MENYNVKTRAFPTIGIILLGGISDKKNRIPLHTTAGIAYTGINNDVYTETKLYVSKDEKSYIDGKEIDLNSDRSPSKVIDKFKHEILMRVNLDDENNLSIDSRNFNILSGSSDSGAAALGECIESIFEYNINIFTFENDLQRISESVGRSLYGGLTVNYANGRESLTEPLLEPEAFNNFTIIGAHFNIDRKPSNEIHENIIKHENYRERIKSAERKAKKLEELSRNANIKGIFELAESDTVEYHKMLHDVGVDIINDRMENLIERVKEMKNNFWNSYIVTGGPNVFVITEKKDVDKAMEGLNDLCDDIRLLKVAGKPQVISKNF
modifications: optimized gene; M3K optimized gene
[3]; purified M3K enzyme with 3-HIV, 50° C.
  highest overall bioproduction of isobutene: 2,880±140 pmol/min*mg protein
[3]; 30° C.
  Isobutene production: 26±2 pmol*min-1 *mg protein
[3]; 50° C.
  Isobutene production: 2,880±140 pmol*min-1 *mg protein
3-HIV
  isobutene production rates: up to 507 pmol min^−1 g cells^−1
